What was measured:
[1] = One-photon fluorescence relative signal change per 100 mV; conditions: excitation / long-pass emission (nm) given
Excerpt: The left-most data columns of Table 1 are the absorption and emission maxima for one photon fluorescence in soybean multi-lamellar lipid vesicles used to mimic the membrane environment. The column indicating relative signal change for one-photon fluorescence also lists the excitation light source used and the lower bounds of the long-pass emission detected.

[2] = One-photon absorption and emission spectra in multilamellar lipid vesicles, water and ethanol; type: physicochemical; conditions: for Absorbance MLV: multilamellar lipid vesicles; for 1PF Abs. Max / 1PF Em. Max: one photon, soybean multi-lamellar lipid vesicles
Excerpt: […] The column indicating relative signal change for one-photon fluorescence also lists the excitation light source used and the lower bounds of the long-pass emission detected.
Absorption and emission spectra were obtained for a series of dyes with different acceptors: pyridinium (PY-1261), quinolinium (PY-212), and acridinium (PY-2240).

[3] = system: NIE-115 mouse neuroblastoma; assay: Time-dependence (kinetics) of SHG and 2PF signal change after voltage-clamp step; type: cell-based; conditions: for SHG Kinetics (exponential time constant): time resolution 5 ms
Excerpt: For full details of our non-linear imaging microscope, we refer the reader to previously published descriptions. A. C. Millard, P. J. Campagnola, W. Mohler, A. Lewis, and L. M. Loew, “Second Harmonic Imaging Microscopy,” Meth. Enzymol. 361, 47-69 (2003); Millard, A. C., L. Jin, and L. M. Loew, “Second Harmonic Generation Imaging Microscopy with a High Power Ultrafast Fiber Laser,”Commercial and Biomedical Applications of Ultrafast Lasers. 5714-5716, 92-98 (2005); A. C. Millard, L. Jin, M.-D. Wei, J. P. Wuskell, A. Lewis, and L. M. Loew, “Sensitivity of Second Harmonic Generation from Styryl Dyes to Transmembrane Potential,” Biophys. J. 86, 1169-1176 (2004). Our current microscope combines a Fluoview (Olympus) scan-head and an Axiovert (Zeiss) inverted microscope constructed for multiple imaging methodologies including wide-field, one-photon excitation fluorescence imaging, as well as SHG and 2PF imaging. Our laser sources include a Mira (Coherent) Ti:sapphire laser and a Femtopower (Fianium) fiber laser operating at 1064 nm. Millard, A. C., L. Jin, and L. M. Loew, “Second Harmonic Generation Imaging Microscopy with a High Power Ultrafast Fiber Laser,”Commercial and Biomedical Applications of Ultrafast Lasers. 5714-5716, 92-98 (2005). For excitation, we routinely use an IR-Achroplan (Zeiss) 40×, 0.8 NA water-immersion objective though for shorter wavelengths we also use an A-Plan (Zeiss) 40×, 0.65 NA air objective. Fluorescence is imaged (for linear imaging) or collected (for non-linear imaging) back through the excitation objective, while SHG is collected in the forward, transmitted light direction by a condenser, either 0.8 NA or 0.55 NA (Zeiss). For optimal collection, the numerical aperture of the condenser should be at least 1/√2 of the numerical aperture of the excitation objective (L. Moreaux, O. Sandre, S. Charpak, M. Blanchard-Desce, and J. Mertz, “Coherent Scattering in Multi-Harmonic Light Microscopy,” Biophys. J. 80, 1568-1574 (2001); L. Moreaux, O. Sandre, and J. Mertz. “Membrane Imaging by Second Harmonic Generation Microscopy,” J. Opt. Soc. Am. B. 17, 1685-1694 (2000)), though in practice a condenser of slightly lower numerical aperture will often suffice. Since the wavelength of second harmonic light is precisely half that of the excitation light, the choice of filter for SHG imaging is greatly simplified and the primary concern is the blocking of the excitation light that is also transmitted through the sample as well as fluorescence that is emitted forwards.
NIE-115 mouse neuroblastoma were cultured in DMEM with 10% fetal bovine serum and 1% antibiotic-antimycotic (Invitrogen, Carlsbad, Calif.) in a 60 mm plastic dish (353002, Becton Dickinson, Franklin Lakes, N.J.). The culture was maintained at 37° C. with 5% CO2 for a period of 48 hours prior to experimentation.
For experimentation the growth medium was replaced with 3 mL of Earle's Balanced Salt Solution (EBSS, Sigma, St. Louis, Mo.) with 20 mM HEPES (Merck Biosciences AG, Laufelfingen, Switzerland). The internal buffer, injected into the patch pipette, was a potassium aspartate (140 mM, Sigma, St. Louis, Mo.), sodium chloride (5 mM, Sigma, St. Louis, Mo.) and HEPES (10 mM) solution at a pH of 7.35. The pH was adjusted with potassium hydroxide and hydrochloric acid.
For characterizing the voltage-sensitivity of SHG and 2PF, we used a slow (˜0.1 Hz) switching protocol as previously described (A. C. Millard, P. J. Campagnola, W. Mohler, A. Lewis, and L. M. Loew, “Second Harmonic Imaging Microscopy,” Meth. Enzymol. 361, 47-69 (2003); Millard, A. C., L. Jin, and L. M. Loew, “Second Harmonic Generation Imaging Microscopy with a High Power Ultrafast Fiber Laser,” Commercial and Biomedical Applications of Ultrafast Lasers. 5714-5716, 92-98 (2005); A. C. Millard, L. Jin, M.-D. Wei, J. P. Wuskell, A. Lewis, and L. M. Loew, “Sensitivity of Second Harmonic Generation from Styryl Dyes to Transmembrane Potential,” Biophys. J. 86, 1169-1176 (2004)) with a 50 mV step. […]

## CCN(CC)c1ccc(-c2ccc(/C=C/c3cc[n+](CCC[N+](CC)(CC)CC)cc3)s2)s1 [PY-1261, Di-2-BTEPPTEA]
[1]
  1PF Change (ΔF/F-100 mv): 5.0E−002; 625/>715 ΔF/F-100 mv
[2]
  Absorbance ethanol: 614 nm
  Absorbance MLV: 547 nm
  1PF Abs. Max: 547 nm
  1PF Em. Max: 686 nm
  Absorbance water: 539 nm
[3]
  SHG kinetics, in words: instantaneous

## CCCCN(CCCC)c1ccc(-c2ccc(/C=C/c3cc[n+](CCC[N+](CC)(CC)CC)cc3)s2)s1 [PY-1266, Di-4-BTEPPTEA]
[1]
  1PF Change (ΔF/F-100 mv): 1.0E−001; 635/>715 ΔF/F-100 mv
[2]
  Absorbance ethanol: 624 nm
  Absorbance MLV: 552 nm
  1PF Abs. Max: 552 nm
  1PF Em. Max: 694 nm
  Absorbance water: 555 nm
[3]
  SHG kinetics, in words: slower kinetic response
  SHG Kinetics (exponential time constant): 23 ± 2 ms

## CCCN(CCC)c1ccc(-c2ccc(/C=C/c3cc[n+](CCC[N+](CC)(CC)CC)cc3)s2)s1 [PY-1286, Di-3-BTEPPTEA]
[1]
  1PF Change (ΔF/F-100 mv): 1.8E−001; 640/>715 ΔF/F-100 mv
[2]
  Absorbance ethanol: 616 nm
  Absorbance MLV: 547 nm
  1PF Abs. Max: 547 nm
  1PF Em. Max: 692 nm
  Absorbance water: 567 nm
[3]
  SHG kinetics, in words: slower kinetic response
  SHG Kinetics (exponential time constant): 27 ± 1 ms
